According to US20020002171A1, “Materials and methods for killing nematodes and nematode eggs” (priority 2000, published 2002):

Tested on: Caenorhabditis elegans
Experiment: C. elegans L1 nematicidal dose response in 96-well plates, 5 day visual score (Example 2; same procedure for Example 7, Table 3)
Format: in vivo
Set-up: key to 5 Day Visual Score V1 / 5 Day Visual Score V2 / 5 Day Visual Score V3 / 5 Day Visual Score V4 / 5 Day Visual Score V6 / 5 Day Visual Score V5 / Initial HTS Run Visual Score / Follow-up HTS Run Visual Score: Dead: only stiff L1s (no movement); Dead (L4): worms are dead, but at a later larval stage; majority of worms are L1 (based on size) worms move when plate is tapped; majority of worms are L2 (based on size); majority of worms are L3 (based on size); majority of worms are L4 (based on size); AD: majority of worms are adult; #AD: 5 adult worms or less; B!: sterile (0-25 progeny); B: low broodsize (25-100 progeny); ˜B: moderate broodsize (100-250 progeny); <: reduced broodsize (250-500 progeny); OK: no effect (˜1000+ progeny)
Conditions: for 5 Day Visual Score V1 / 5 Day Visual Score V6 / 5 Day Visual Score V2 / 5 Day Visual Score V4 / 5 Day Visual Score V5 / 5 Day Visual Score V3: dose response
In short: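 Scoring was by eye at 100× on day 5, after incubation at 20° C, of 20 C. elegans L1s per well fed 1% E. coli HB101 in NGM. Compound columns V1–V6 spanned 70 μM to 0.3 μM in 3-fold steps, with 1.4% DMSO in the top well and as control.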

| SMILES | Follow-up HTS Run % Run | Follow-up HTS Run Visual Score | Follow-up HTS Run mOD | Initial HTS Run % Run | Initial HTS Run Visual Score | Initial HTS Run mOD | 5 Day Visual Score V1 (dilution V1, 5 day) | 5 Day Visual Score V6 (dilution V6, 5 day) | 5 Day Visual Score V1 (dilution V1, day 5) | 5 Day Visual Score V2 (dilution V2, day 5) | 5 Day Visual Score V4 (dilution V4, day 5) | 5 Day Visual Score V5 (dilution V5, day 5) | 5 Day Visual Score V6 (dilution V6, day 5) | 5 Day Visual Score V2 (dilution V2, 5 day) | 5 Day Visual Score V3 (dilution V3, 5 day) | 5 Day Visual Score V3 (dilution V3, day 5) | 5 Day Visual Score V4 (dilution V4, 5 day) | 5 Day Visual Score V5 (dilution V5, 5 day) |
| --- | --- | --- | --- | --- | --- | --- | --- | --- | --- | --- | --- | --- | --- | --- | --- | --- | --- | --- |
| CN(CCc1ccccc1)c1nc(NC2CCCCCCCCCCC2)ns1 [compound 335] | 86% | Dead | 139 mOD | 97% | Dead | 107 mOD | Dead | < (reduced broodsize (250-500 progeny)) |  |  |  |  |  |  |  |  |  |  |
| CCCCCCCCCCNc1nsc(N(CC(C)C)CC(C)C)n1 [compound 281] | 128% | Dead | 206 mOD | 141% | Dead | 155 mOD |  |  | Dead | Dead | OK (no effect (˜1000+ progeny)) | OK (no effect (˜1000+ progeny)) | OK (no effect (˜1000+ progeny)) |  |  |  |  |  |
| CN(CCc1ccccc1)c1nc(NCc2ccc(C(F)(F)F)cc2)ns1 [compound 314] | 103% |  | 166 mOD | 106% |  | 117 mOD | L1 | OK (no effect (˜1000+ progeny)) |  |  |  |  |  | L4#AD/B! and L1 | L1 |  |  |  |
| OCCN(Cc1ccccc1)c1nc(NCc2ccc(C(F)(F)F)cc2)ns1 [compound 255] | 98% | L1/L2 - Dead L3 | 157 mOD | 94% | Dead(L3) | 103 mOD |  |  | Dead | Dead | OK (no effect (˜1000+ progeny)) | OK (no effect (˜1000+ progeny)) | OK (no effect (˜1000+ progeny)) |  |  | OK (no effect (˜1000+ progeny)) |  |  |
| Fc1ccc(CCNc2nsc(N3CCN(c4ccc(F)cc4)CC3)n2)cc1 [compound 240] | 86% | Dead | 138 mOD | 101% |  | 111 mOD |  |  | Dead | L1 | ˜B (moderate broodsize (100-250 progeny)) | < (reduced broodsize (250-500 progeny)) | OK (no effect (˜1000+ progeny)) |  |  |  |  |  |
| C=CCN(CC=C)c1nc(NC2CCCCCCCCCCC2)ns1 [compound 334] | 88% |  | 141 mOD | 98% | Dead | 108 mOD | Dead | OK (no effect (˜1000+ progeny)) |  |  |  |  |  | Dead |  |  | OK (no effect (˜1000+ progeny)) | OK (no effect (˜1000+ progeny)) |
